What all share (assay type): in vivo
Assay [1] deals with haploid maize lines (Germplasm A, Germplasm B). Put plainly: Co-dominant ear induction by PBZ soil drench in colchicine-doubled haploid maize (Example 1). An excerpt:
V1-V3 seedlings of two unique F1 hybrid-derived haploid maize lines, derived from: female heterotic group (Germplasm A) or male heterotic group (Germplasm B), were subjected to a bulk colchicine-based chromosome doubling treatment by removing the seedlings from soil or growth media at the V1-V3 growth stage and aligning their stems and wrapping them together along with several wooden rods into bundle a held together by a strip of aluminum foil (approximate foil strip dimensions were 6 in×18 in). The bundled plants were submerged in plant treatment solution comprising 1250 ppm of colchicine in a centrifuge container and then the entire sample was centrifuged at 50 g for 3 min while the shoot apical meristems (SAMs) remained submerged in the plant treatment agent solution.
Following the first centrifugation, the plant treatment solution was decanted and the seedlings subjected to an addition centrifugation at 335 g for 3 min. During the second centrifugation, the rod-wrap bundle supported the seedlings and prevented the SAMs from contacting the reserve treatment agent that was not absorbed by the plant during application of the centrifugal force.
Following the second centrifugation, the plants were removed from the centrifugation container and the rod-wrap bundle and rinsed with water to remove any remaining colchicine solution, and then recovered and tended in a light, humidity, and temperature-controlled greenhouse for several days before being transplanted to a nursery greenhouse. These centrifuge-based treatment methods are described in more detail in International application number PCT/US2015/028955, which is incorporated by reference herein in its entirety, however, standard doubling treatments can also be applied to any of the haploid doubling steps referred to herein.
Following colchicine doubling treatment, 15-20 plants from each germplasm were planted in pots at two different densities; either as single plants per pot (singles), or as two plants per pot (pairs).
Next, each plant received one of two different doses of PBZ, either 50 mL (low dose) or 60 mL (high dose) of a 2.5% PBZ solution (v/v; 0.4% of active ingredient) in water. These two different doses were applied by soil drench at either the V7 or V8 growth stage, which occurred a total of 23 or 26 days after the seedlings had been subjected to chromosome doubling treatment, respectively. A control group of plants received no treatment solution but were otherwise treated exactly as the experimental groups planted as singles. When pollen shed began at the tassels, the average number of silk-producing ears (i.e. co-dominant ears) were counted for each dosage, germplasm, and treatment time and the results summarized in Table. 1.

For assay [2], the system named is haploid mother plant. Description: Tiller induction in doubled haploid maize (Example 7). The protocol:
A haploid mother plant will be subjected to doubling treatment and thereafter planted in a pot, the soil surrounding the roots drenched with 100 mL of 2.5% of paclobutrazol, and then tended standard maize greenhouse growing conditions for several days. […] One of the resulting daughter tiller plants can be separated from the mother plant, transplanted into a separate pot, and grown via standard greenhouse management procedures to eventually recover a daughter plant with normal haploid morphology.

Assay [3] relates to diploid maize plants of a common inbred line. Put plainly: Tiller induction in diploid maize (Example 6). The method, then: Diploid maize plants of a common inbred line were subjected to a tiller induction treatment comprising drenching the soil surrounding the roots with 100 mL of a 2.5% PBZ solution (v/v; 0.4% of active ingredient) approximately one week after germination and then allowed to grow to sexual maturity in 10-inch pots a greenhouse. A control group of plants were grown under identical circumstances except that they were not subjected to the tiller induction treatment.
Three treatment groups were then formed from the tillers: tillers of the “Co-hab” treatment were allowed to continue growing in the same pot with the mother plant; those of the “-Mother” treatment also remained in the same pot, but the mother plant was removed from the pot; and those of the “Transplanted” treatment group were transplanted from the pot containing the mother plant into separate 10-inch pots, one plant per pot. Any naturally-occurring tillers produced by the control group were allowed to grow in the same pot as the mother plant, similar to the co-hab treatment. All plants were allowed to grow to sexual maturity and self-pollinated when silks and tassels formed. When seed set was complete, the average total number of seeds produced by all plants deriving from the same mother plant seed were counted and plotted in FIG. 3.

Bounds are passed on as bounds.

As to `CC(C)(C)[C@@H](O)[C@@H](Cc1ccc(Cl)cc1)n1cncn1` (relative stereo) [PBZ, (±)-(R*, R*)-beta-((4-chlorophenyl)methyl)-alpha-(1,1,-dimethylethyl)-1H-1,2,4,-triazole-1-ethanol], the “number of co-dominant ears formed per plant” value (“number … per plant” below) in assay [1] (V7, Germplasm A, pairs, high dose (60 mL 2.5% PBZ)) was 3.4; in assay [1] (V7, Germplasm A, pairs, low dose (50 mL 2.5% PBZ)), 3; in assay [1] (V7, Germplasm A, singles, high dose (60 mL 2.5% PBZ)) it was 3.9; in assay [1] (V7, Germplasm A, singles, low dose (50 mL 2.5% PBZ)), 3.4; in assay [1] (V7, Germplasm B, pairs, high dose (60 mL 2.5% PBZ)), 1.5; in assay [1] (V7, Germplasm B, pairs, low dose (50 mL 2.5% PBZ)), 1.5. Also, the “number … per plant” value came to 3.3 in assay [1] (V7, Germplasm B, singles, high dose (60 mL 2.5% PBZ)); 2.7 in assay [1] (V7, Germplasm B, singles, low dose (50 mL 2.5% PBZ)); 2.2 in assay [1] (V8, Germplasm A, pairs, high dose (60 mL 2.5% PBZ)); 2.3 in assay [1] (V8, Germplasm A, pairs, low dose (50 mL 2.5% PBZ)); 3.5 in assay [1] (V8, Germplasm A, singles, high dose (60 mL 2.5% PBZ)); 2.3 in assay [1] (V8, Germplasm A, singles, low dose (50 mL 2.5% PBZ)). In addition, the “number … per plant” value in assay [1] (V8, Germplasm B, pairs, high dose (60 mL 2.5% PBZ)) is reported as 1.5; in assay [1] (V8, Germplasm B, pairs, low dose (50 mL 2.5% PBZ)), 1.5; in assay [1] (V8, Germplasm B, singles, high dose (60 mL 2.5% PBZ)), 2.2; in assay [1] (V8, Germplasm B, singles, low dose (50 mL 2.5% PBZ)), 2.3. The “average EP (ear per plant), high dosage greater than low dosage by” value in assay [1] (all plants) came to 0.31. Further, the “average EP, high-dose higher than low-dose by” value in assay [1] (singles only) was found to be 0.55. Besides, the “minimum increase over control plants” value in assay [1] (singles, low dose) is reported as no less than 1.2 EP. For the same molecule, the “DH1 seeds yielded by transplanted daughter tiller plant when selfed” value in assay [2] (100 mL of 2.5% paclobutrazol) was “several dozen”. In assay [2] (100 mL of 2.5% paclobutrazol soil drench after doubling treatment), the “effect on mother plant” value is “shortened internodes and increased tiller production”. Besides, in assay [3] (100 mL 2.5% PBZ soil drench), the “effect on mother plants” value was “shortened internodes, and induced the mother plants to produce tillers”. For the same molecule, the “number of seeds vs control group” value in assay [3] (transplanted treatment group, 100 mL 2.5% PBZ one week after germination) is given as “more than twice”.

The record behind these values is patent US11917959B2, “Multi-ear system to enhance monocot plant yield” (Monsanto Technology LLC, priority 2015, dated 2024).
